Test results taken from US20130121994A1, “TRIAZOLOPYRIDINE DERIVATIVES” (BAYER INTELLECTUAL PROPERTY GMBH, priority 2009, published 2013).

Target: T1, human kinase Mps-1 (Homo sapiens, UniProt P33981)
T1 construct: N-terminally GST-tagged human full length recombinant Mps-1 kinase; GST (N); purchased Invitrogen, Karslruhe, Germany PV4071
T1 sequence (P33981 1-857): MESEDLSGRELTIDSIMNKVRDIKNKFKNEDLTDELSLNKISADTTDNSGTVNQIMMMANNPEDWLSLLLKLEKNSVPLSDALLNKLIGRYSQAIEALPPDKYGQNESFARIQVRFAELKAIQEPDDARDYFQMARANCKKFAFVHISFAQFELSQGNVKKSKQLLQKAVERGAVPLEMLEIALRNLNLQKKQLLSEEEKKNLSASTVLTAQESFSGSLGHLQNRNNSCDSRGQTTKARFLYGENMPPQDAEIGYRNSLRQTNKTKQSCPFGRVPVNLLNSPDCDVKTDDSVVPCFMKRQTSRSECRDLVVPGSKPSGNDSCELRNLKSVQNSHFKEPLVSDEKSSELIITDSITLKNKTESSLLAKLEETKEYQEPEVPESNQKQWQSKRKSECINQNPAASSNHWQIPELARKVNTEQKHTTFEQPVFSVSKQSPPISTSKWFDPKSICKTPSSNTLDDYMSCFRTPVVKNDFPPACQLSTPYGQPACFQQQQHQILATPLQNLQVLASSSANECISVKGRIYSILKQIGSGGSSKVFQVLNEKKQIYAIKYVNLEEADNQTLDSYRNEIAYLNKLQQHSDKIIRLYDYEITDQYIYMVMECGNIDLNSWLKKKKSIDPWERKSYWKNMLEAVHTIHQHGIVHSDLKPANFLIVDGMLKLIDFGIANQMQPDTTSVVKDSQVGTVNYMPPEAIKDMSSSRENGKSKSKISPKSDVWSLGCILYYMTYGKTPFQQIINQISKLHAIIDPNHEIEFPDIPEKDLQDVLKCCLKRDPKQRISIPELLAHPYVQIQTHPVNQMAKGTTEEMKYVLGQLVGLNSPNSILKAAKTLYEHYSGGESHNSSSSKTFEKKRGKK
Test: Mps-1 kinase assay (HTRF)
Type: biochemical

SMILES | IC50
N#Cc1ccccc1Nc1nc2ccc(-c3cccc(C(=O)NCC(F)F)c3F)cn2n1 [Example 11.069, 3-{2-[(2-cyanophenyl)amino][1,2,4]triazolo[1,5-a]pyridin-6-yl}-N-(2,2-difluoroethyl)-2-fluorobenzamide] | 34.2 nM
N#Cc1ccccc1Nc1nc2ccc(-c3cccc(C(=O)NCCO)c3)cn2n1 [Example 11.070, 3-{2-[(2-cyanophenyl)amino][1,2,4]triazolo[1,5-a]pyridin-6-yl}-N-(2-hydroxyethyl)benzamide] | 29.7 nM
C[C@H](O)CNC(=O)c1cccc(-c2ccc3nc(Nc4ccccc4C#N)nn3c2)c1 [Example 11.071, 3-{2-[(2-cyanophenyl)amino][1,2,4]triazolo[1,5-a]pyridin-6-yl}-N-[(2S)-2-hydroxypropyl]benzamide] | 36.9 nM
N#Cc1ccccc1Nc1nc2ccc(-c3cccc(C(=O)NCCF)c3F)cn2n1 [Example 11.072, 3-{2-[(2-cyanophenyl)amino][1,2,4]triazolo[1,5-a]pyridin-6-yl}-2-fluoro-N-(2-fluoroethyl)benzamide] | 42.2 nM
N#Cc1ccccc1Nc1nc2ccc(-c3ccc(F)c(C(=O)O)c3)cn2n1 [Example 11.073, 5-{2-[(2-cyanophenyl)amino][1,2,4]triazolo[1,5-a]pyridin-6-yl}-2-fluorobenzoic acid] | 43.5 nM
N#Cc1ccccc1Nc1nc2ccc(-c3cc(F)cc(C(=O)O)c3)cn2n1 [Example 11.074, 3-{2-[(2-cyanophenyl)amino][1,2,4]triazolo[1,5-a]pyridin-6-yl}-5-fluorobenzoic acid] | 170 nM
CCOC(=O)c1cc(F)cc(-c2ccc3nc(Nc4ccccc4C#N)nn3c2)c1 [Example 11.075, ethyl 3-{2-[(2-cyanophenyl)amino][1,2,4]triazolo[1,5-a]pyridin-6-yl}-5-fluorobenzoate] | 1980 nM
CNC(=O)c1ccc(Nc2nc3ccc(-c4cccc(C(=O)NCC(C)(C)C)c4)cn3n2)c(OC)c1 [Example 11.076, 4-[(6-{3-[(2,2-dimethylpropyl)carbamoyl]phenyl}[1,2,4]tria-zolo[1,5-a]pyridin-2-yl)amino]-3-methoxy-N-methylbenzamide] | ≤ 1 nM
COc1cc(C(=O)NC(C)(C)C)ccc1Nc1nc2ccc(-c3cccc(C(=O)NCC(F)(F)F)c3)cn2n1 [Example 11.077, N-tert-butyl-3-methoxy-4-[(6-{3-[(2,2,2-trifluoroethyl)carbamoyl]phenyl}[1,2,4]triazolo [1,5-a]pyridin-2-yl)amino]benzamide] | ≤ 1 nM
COc1cc(C(=O)NCCS(C)(=O)=O)ccc1Nc1nc2ccc(-c3cccc(C(=O)NCC(C)(C)C)c3)cn2n1 [Example 11.078, 4-[(6-{3-[(2,2-dimethylpropyl)carbamoyl]phenyl}[1,2,4]tria-zolo[1,5-a]pyridin-2-yl)amino]-3-methoxy-N-[2-(methylsulfonyl)ethyl]benzamide] | ≤ 1 nM
CCNC(=O)c1ccc(Nc2nc3ccc(-c4cccc(C(=O)NCC(C)(C)C)c4)cn3n2)c(OC)c1 [Example 11.079, 4-[(6-{3-[(2,2-dimethylpropyl)carbamoyl]phenyl}[1,2,4]tria-zolo[1,5-a]pyridin-2-yl)amino]-N-ethyl-3-methoxybenzamide] | ≤ 1 nM
COc1cc(C(=O)NCCS(C)(=O)=O)ccc1Nc1nc2ccc(-c3cccc(C(=O)NCC(F)(F)F)c3)cn2n1 [Example 11.080, 3-methoxy-N-[2-(methylsulfonyl)ethyl]-4-[(6-{3-[(2,2,2-trifluoroethyl)carbamoyl]phenyl}[1,2,4]triazolo [1,5-a]pyridin-2-yl)amino]benzamide] | ≤ 1 nM
CCNC(=O)c1ccc(Nc2nc3ccc(-c4cccc(C(=O)NCC(F)(F)F)c4)cn3n2)c(OC)c1 [Example 11.081, N-ethyl-3-methoxy-4-[(6-{3-[(2,2,2-trifluoroethyl)carbamoyl]phenyl}[1,2,4]triazolo [1,5-a]pyridin-2-yl)amino]benzamide] | ≤ 1 nM
COc1cc(C(=O)NC(C)(C)C)ccc1Nc1nc2ccc(-c3cccc(C(=O)NCC(C)(C)C)c3)cn2n1 [Example 11.082, N-tert-butyl-4-[(6-{3-[(2,2-dimethylpropyl)carbamoyl]phenyl}[1,2,4]tria-zolo[1,5-a]pyridin-2-yl)amino]-3-methoxybenzamide] | 1.23 nM
CCNC(=O)c1ccc(Nc2nc3ccc(-c4cccc(C(=O)NCC(F)(F)C(F)(F)F)c4)cn3n2)c(OC)c1 [Example 11.083, N-ethyl-3-methoxy-4-[(6-{3-[(2,2,3,3,3-pentafluoropropyl)carbamoyl]phenyl}[1,2,4]triazolo[1,5-a]pyridin-2-yl)amino]benzamide] | ≤ 1 nM
COc1cc(C(=O)NCC(F)(F)F)ccc1Nc1nc2ccc(-c3cccc(C(=O)NCC(C)(C)C)c3)cn2n1 [Example 11.084, 4-[(6-{3-[(2,2-dimethylpropyl)carbamoyl]phenyl}[1,2,4]tria-zolo[1,5-a]pyridin-2-yl)amino]-3-methoxy-N-(2,2,2-trifluoroethyl)benzamide] | 1.07 nM
CCOc1cc(C(=O)NCCS(C)(=O)=O)ccc1Nc1nc2ccc(-c3cccc(C(=O)NCC(C)(C)C)c3)cn2n1 [Example 11.085, 4-[(6-{3-[(2,2-dimethylpropyl)carbamoyl]phenyl}[1,2,4]tria-zolo[1,5-a]pyridin-2-yl)amino]-3-ethoxy-N-[2-(methylsulfonyl)ethyl]benzamide] | ≤ 1 nM
CCOc1cc(C(=O)NCCS(C)(=O)=O)ccc1Nc1nc2ccc(-c3cccc(C(=O)NCC(F)(F)F)c3)cn2n1 [Example 11.086, 3-ethoxy-N-[2-(methylsulfonyl)ethyl]-4-[(6-{3-[(2,2,2-trifluoroethyl)carbamoyl]phenyl}[1,2,4]triazolo [1,5-a]pyridin-2-yl)amino]benzamide] | ≤ 1 nM
CCNC(=O)c1ccc(Nc2nc3ccc(-c4cccc(C(=O)NCC(C)(C)C)c4)cn3n2)c(OCC)c1 [Example 11.087, 4-[(6-{3-[(2,2-dimethylpropyl)carbamoyl]phenyl}[1,2,4]tria-zolo[1,5-a]pyridin-2-yl)amino]-3-ethoxy-N-ethylbenzamide] | ≤ 1 nM
CCNC(=O)c1ccc(Nc2nc3ccc(-c4cccc(C(=O)NCC(F)(F)F)c4)cn3n2)c(OCC)c1 [Example 11.088, 3-ethoxy-N-ethyl-4-[(6-{3-[(2,2,2-trifluoroethyl)carbamoyl]phenyl}[1,2,4]triazolo [1,5-a]pyridin-2-yl)amino]benzamide] | ≤ 1 nM
CCOc1cc(C(=O)NC(C)(C)C)ccc1Nc1nc2ccc(-c3cccc(C(=O)NCC(C)(C)C)c3)cn2n1 [Example 11.089, N-tert-butyl-4-[(6-{3-[(2,2-dimethylpropyl)carbamoyl]phenyl}[1,2,4]tria-zolo[1,5-a]pyridin-2-yl)amino]-3-ethoxybenzamide] | 1.01 nM
CCOc1cc(C(=O)NC(C)(C)C)ccc1Nc1nc2ccc(-c3cccc(C(=O)NCC(F)(F)F)c3)cn2n1 [Example 11.090, N-tert-butyl-3-ethoxy-4-[(6-{3-[(2,2,2-trifluoroethyl)carbamoyl]phenyl}[1,2,4]triazolo [1,5-a]pyridin-2-yl)amino]benzamide] | 1.62 nM
CC(C)(C)CNC(=O)c1cccc(-c2ccc3nc(Nc4ccc(C(=O)NCCO)cc4OCC(F)(F)F)nn3c2)c1 [Example 11.091, 4-[(6-{3-[(2,2-dimethylpropyl)carbamoyl]phenyl}[1,2,4]tria-zolo[1,5-a]pyridin-2-yl)amino]-N-(2-hydroxyethyl)-3-(2,2,2-trifluoroethoxy)benzamide] | ≤ 1 nM
CC(C)(C)CNC(=O)c1cccc(-c2ccc3nc(Nc4ccc(C(=O)NC(C)(C)CO)cc4OCC(F)(F)F)nn3c2)c1 [Example 11.092, 4-[(6-{3-[(2,2-dimethylpropyl)carbamoyl]phenyl}[1,2,4]tria-zolo[1,5-a]pyridin-2-yl)amino]-N-(1-hydroxy-2-methylpropan-2-yl)-3-(2,2,2-trifluoroethoxy)benzamide] | ≤ 1 nM
O=C(NCCO)c1ccc(Nc2nc3ccc(-c4cccc(C(=O)NCC(F)(F)F)c4)cn3n2)c(OCC(F)(F)F)c1 [Example 11.093, N-(2-hydroxyethyl)-3-(2,2,2-trifluoroethoxy)-4-[(6-{3-[(2,2,2-trifluoroethyl)carbamoyl]phenyl}[1,2,4]triazolo [1,5-a]pyridin-2-yl)amino]benzamide] | ≤ 1 nM
CC(C)(CO)NC(=O)c1ccc(Nc2nc3ccc(-c4cccc(C(=O)NCC(F)(F)F)c4)cn3n2)c(OCC(F)(F)F)c1 [Example 11.094, N-(1-hydroxy-2-methylpropan-2-yl)-3-(2,2,2-trifluoroethoxy)-4-[(6-{3-[(2,2,2-trifluoroethyl)carbamoyl]phenyl}[1,2,4]triazolo [1,5-a]pyridin-2-yl)amino]benzamide] | ≤ 1 nM
